Results on twelve compounds are retold here after patent US9737535B2, “Methods for treating cancer using TOR kinase inhibitor combination therapy comprising administering substituted pyrazino[2,3-b]pyrazines” (Signal Pharmaceuticals, LLC, priority 2014, dated 2017).

SMILES strings stand for the structures. Counter-ions that a name gives are not always drawn.

Holding throughout (experiment): Anti-proliferation assay (ATPLite), Chalice synergy score
Holding throughout (assay type): cell-based

The test system of assay [1] is BT-20. More on the design: scale not given here. The following applies: Compound 1 in combination with the named second active agent, 72 h, mean of n = 3 experiments in triplicate. An excerpt: (§1) Cells were thawed from a liquid nitrogen preserved state.
(§2) The calculation for synergy score is provided below.
(§3) If T≧V0:100*[1−(T−V0)/(V−V0)]

Assay [2] deals with HCC-1500. The arrangement: scale not given here. Particulars: Compound 1 in combination with the named second active agent, 72 h, mean of n = 3 experiments in triplicate.
Description: as §1, §2, §3

Assay [3] deals with HCC-1187. More on the design: scale not given here. Particulars: Compound 1 in combination with the named second active agent, 72 h, mean of n = 3 experiments in triplicate.
Description: as §1, §2, §3

Assay [4] concerns MDA-MB-468. Particulars: Compound 1 in combination with second active agent, mean self-cross + 2σ threshold 4.66.
Description: as §1, §2, §3

In assay [5] the test system is HCC-1806. The following applies: Compound 1 in combination with the named second active agent, 72 h, mean of n = 3 experiments in triplicate.
Description: as §1, §2, §3

The test system of assay [6] is HCC-1937. Particulars: Compound 1 in combination with the named second active agent, 72 h, mean of n = 3 experiments in triplicate.
Description: as §1, §2, §3

Assay [7] concerns HCC-1428. Particulars: Compound 1 in combination with the named second active agent, 72 h, mean of n = 3 experiments in triplicate.
Description: as §1, §2, §3

Assay [8] relates to HCC70. The following applies: Compound 1 in combination with second active agent; HCC-70; mean self-cross + 2σ threshold 3.45.
Description: as §1, §2, §3

In assay [9] the test system is Hs-578-T. Particulars: Compound 1 in combination with second active agent, mean self-cross + 2σ threshold 4.09.
Description: as §1, §2, §3

The test system of assay [10] is MDA-MB-231. Particulars: Compound 1 in combination with second active agent, mean self-cross + 2σ threshold 2.61.
Description: as §1, §2, §3

In assay [11] the test system is MDA-MB-157. Particulars: Compound 1 in combination with second active agent, mean self-cross + 2σ threshold 4.68.
Description: as §1, §2, §3

Assay [12] has as its system BT-474. Particulars: Compound 1 in combination with the named second active agent, 72 h, mean of n = 3 experiments in triplicate.
Description: as §1, §2, §3

The subject of assay [13] is BT-549. Particulars: Compound 1 in combination with the named second active agent, 72 h, mean of n = 3 experiments in triplicate.
Description: as §1, §2, §3

Assay [14] relates to MCF7. The following applies: Compound 1 in combination with second active agent, mean self-cross + 2σ threshold 3.07.
Description: as §1, §2, §3

Assay [15] relates to MDA-MB-436. The following applies: Compound 1 in combination with second active agent, mean self-cross + 2σ threshold 1.91.
Description: as §1, §2, §3

With `CS(=O)(=O)c1ccc(C(=O)Nc2ccc(Cl)c(-c3ccccn3)c2)c(Cl)c1` [GDC-0449], the Synergy score in [1] stood at 0.11; in assay [2] it was 0.78; in assay [3], 3.07; in [4] it was 0.44; in assay [5] it was 0.20; in assay [6], 0.88. Also, the Synergy score turned out to be 0.07 in [7]; 1.10 in assay [8]; 0.28 in [9]; 0.08 in assay [10]; 0.77 in assay [11]; 1.47 in assay [12].
In the case of `COc1ccc(-c2ccc3c(N4CCOC[C@@H]4C)nc(N4CCOC[C@@H]4C)nc3n2)cc1CO` [AZD8055], the Synergy score in assay [1] is 0.70; in [2], 2.98; in assay [3], 2.00; in assay [4] it was 1.69; in assay [5], 1.47; in assay [6] it was 2.24. For the same compound, the Synergy score in [7] was 1.79; in [13] it was 0.98; in assay [8], 1.13; in assay [9], 1.55; in assay [14] it was 1.22; in assay [10], 0.61. Further, the Synergy score in assay [11] worked out at 1.04; in assay [12], 1.53; in [15], 0.15.
For the compound `O=C(O)c1ccc2c(c1)nc(Nc1cccc(Cl)c1)c1ccncc12` [CX-4945], the Synergy score in assay [1] was 6.09; in assay [2] it was 2.93; in assay [3], 7.53; in assay [4] it was 6.73; in assay [5], 4.19; in assay [6], 7.92. The Synergy score is reported as 3.28 in [7]; 3.41 in assay [13]; 10.60 in assay [8]; 5.97 in [9]; 2.26 in assay [14]; 2.30 in assay [10]. Also, the Synergy score in assay [11] turned out to be 4.55; in assay [12], 4.91; in [15] it was 1.70.
In the case of `NC(=O)[C@@H](CCC(F)(F)F)N(Cc1ccc(-c2ncon2)cc1F)S(=O)(=O)c1ccc(Cl)cc1` [BMS-708163], the Synergy score in assay [1] is 0.20; in [2], 0.34; in assay [3], 3.06; in assay [4], 0.98; in [5], 0.89; in assay [6], 0.96. Further, the Synergy score was 0.26 in assay [7]; 0.34 in [13]; 1.24 in assay [8]; 1.36 in [9]; 0.16 in [14]; 1.45 in assay [10]. Besides, the Synergy score in assay [11] stood at 0.63; in [12], 0.19; in assay [15], 0.86.
Regarding `COc1cc2c(NC3CCN(C4CCCCC4)CC3)nc(N3CCCN(C(C)C)CC3)nc2cc1OCCCN1CCCCC1` [UNC 0646], the Synergy score in assay [1] was determined as 2.59; in [2], 1.11; in [3], 0.22; in assay [4], 2.08; in [5] it was 0.53; in assay [6], 0.54. The Synergy score is 1.66 in [7]; 0.91 in assay [13]; 2.03 in [8]; 2.20 in assay [9]; 3.27 in assay [14]; 0.49 in assay [10]. In addition, the Synergy score in [11] is reported as 1.05; in [12] it was 1.13; in assay [15] it was 0.66.
Turning to `CC(C)C[C@H](NC(=O)CNC(=O)c1cc(Cl)ccc1Cl)B1OC(=O)C(CC(=O)O)(CC(=O)O)O1` [MLN9708], the Synergy score in assay [1] came out at 3.67; in [2], 2.26; in assay [3], 1.79; in assay [4], 3.00; in assay [5], 4.31; in [6], 3.84. Besides, the Synergy score was 2.59 in assay [7]; 4.47 in [13]; 2.16 in [8]; 1.68 in assay [9]; 0.39 in assay [14]; 2.27 in assay [10]. The Synergy score is given as 2.91 in assay [11], 0.75 in assay [12] and 2.77 in assay [15].
As for `CCc1c2c(nc3ccc(OC(=O)N4CCC(N5CCCCC5)CC4)cc13)-c1cc3c(c(=O)n1C2)COC(=O)[C@]3(O)CC` [Irinotecan Hydrochloride], the Synergy score in [1] is recorded as 2.59; in assay [2], 4.45; in [3], 3.01; in [4], 8.45; in assay [6] it was 3.92; in assay [7], 0.76. The Synergy score amounted to 1.25 in assay [13]; 1.98 in assay [8]; 2.02 in [14]; 1.64 in assay [10]; 5.71 in assay [11]; 1.17 in assay [12]. Further, in assay [15], the Synergy score came out at 3.61.
`C=CC(=O)N1CCC[C@@H](n2nc(-c3ccc(Oc4ccccc4)cc3)c3c(N)ncnc32)C1` [PCI-32765]: the Synergy score in assay [1] is 6.26; in [2], 0.56; in assay [3], 1.70; in [4], 3.10; in assay [5], 3.72; in assay [6], 1.62. The Synergy score in assay [7] came out at 0.59; in assay [13], 0.05; in assay [8], 6.29; in assay [14] it was 0.13; in assay [10] it was 0.27; in assay [11], 3.28. Further, the Synergy score worked out at 5.95 in [12] and 0.07 in assay [15].
With `CC(C)(C)Cn1c(N)nc2ccc(-c3[nH]c(C(C)(C)C)nc3-c3ccc(F)cc3)nc21` [LY2228820], the Synergy score in assay [1] was determined as 0.20; in assay [2], 3.91; in assay [3] it was 0.80; in [4], 5.77; in assay [5], 2.81; in assay [7] it was 1.80. The Synergy score in assay [13] amounted to 1.26; in [8], 3.65; in [14], 3.76; in [10], 2.18; in assay [11] it was 5.64; in [12] it was 2.81. For the same compound, the Synergy score in assay [15] was found to be 1.32.
Turning to `c1ccc2c(CCNc3ccc(Nc4ccncc4)cc3)c[nH]c2c1` [JNJ 26854165], the Synergy score in [1] amounted to 1.42; in assay [2], 1.50; in assay [3], 1.63; in assay [4] it was 3.28; in assay [5], 2.51; in [7], 1.02. Besides, the Synergy score is reported as 0.78 in [13]; 2.46 in [8]; 1.28 in assay [9]; 1.82 in assay [14]; 0.31 in assay [10]; 2.53 in assay [11]. Also, the Synergy score in assay [12] was 1.77; in assay [15], 1.47.
On to `Oc1c2ccccc2c2c3c(cccc13)N=N2` [SP 600125], for which the Synergy score is given as 0.00 in [1]; 1.15 in assay [2]; 5.59 in [3]; 1.16 in assay [5]; 0.87 in [6]; 1.44 in assay [7]. Moreover, the Synergy score in assay [13] came to 1.47; in [8], 3.49; in assay [9], 0.97; in [14] it was 0.75; in [10], 0.65; in assay [11] it was 1.18. Moreover, the Synergy score was found to be 0.72 in assay [12] and 0.79 in assay [15].
Regarding `O=C(NC1CCNCC1)c1[nH]ncc1NC(=O)c1c(Cl)cccc1Cl` [AT7519], the Synergy score came to 4.95 in assay [1]; 0.03 in assay [2]; 1.98 in [4]; 1.01 in assay [5]; 2.04 in assay [6]; 1.58 in assay [7]. The Synergy score is given as 4.33 in assay [13]; 0.86 in assay [8]; 5.16 in [9]; 2.84 in assay [14]; 2.68 in assay [10]; 5.37 in assay [11]. Moreover, the figures for the Synergy score in assay [12] and in assay [15] were 0.19 and 2.57, respectively.
